The source of these data is US9056874B2, “Complement pathway modulators and uses thereof” (NOVARTIS AG, priority 2012, dated 2015).

The experiment has as its target factor B (Homo sapiens, UniProt P00751). The experiment can be described thus: factor B inhibition assay of Biological Example 1. The format is biochemical. Set-up: CVF-Bb complex prepared from purified cobra venom factor (1 μM), recombinant human complement factor B; made in house; host or cells: drosophila cells (factor B); E. coli (factor D used to form the complex). The settings on record: IC50 (nM), assay of Biological Example 1 (Table 1).

Sequence of factor B (P00751 260-764 limits assumed): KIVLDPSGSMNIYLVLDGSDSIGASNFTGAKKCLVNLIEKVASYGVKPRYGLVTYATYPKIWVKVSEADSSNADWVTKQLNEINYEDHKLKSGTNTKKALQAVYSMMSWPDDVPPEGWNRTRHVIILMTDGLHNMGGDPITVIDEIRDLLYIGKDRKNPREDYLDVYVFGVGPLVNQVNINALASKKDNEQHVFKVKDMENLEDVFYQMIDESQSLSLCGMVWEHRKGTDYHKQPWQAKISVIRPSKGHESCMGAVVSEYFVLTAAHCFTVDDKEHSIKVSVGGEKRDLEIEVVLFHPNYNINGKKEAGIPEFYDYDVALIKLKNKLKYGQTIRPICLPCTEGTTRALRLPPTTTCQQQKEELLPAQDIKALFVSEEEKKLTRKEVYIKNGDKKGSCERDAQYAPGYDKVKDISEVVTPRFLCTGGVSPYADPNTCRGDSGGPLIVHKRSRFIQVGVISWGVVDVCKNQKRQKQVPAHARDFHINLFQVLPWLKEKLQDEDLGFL
Sequence of factor B (Q91132 23-649 partner limits assumed): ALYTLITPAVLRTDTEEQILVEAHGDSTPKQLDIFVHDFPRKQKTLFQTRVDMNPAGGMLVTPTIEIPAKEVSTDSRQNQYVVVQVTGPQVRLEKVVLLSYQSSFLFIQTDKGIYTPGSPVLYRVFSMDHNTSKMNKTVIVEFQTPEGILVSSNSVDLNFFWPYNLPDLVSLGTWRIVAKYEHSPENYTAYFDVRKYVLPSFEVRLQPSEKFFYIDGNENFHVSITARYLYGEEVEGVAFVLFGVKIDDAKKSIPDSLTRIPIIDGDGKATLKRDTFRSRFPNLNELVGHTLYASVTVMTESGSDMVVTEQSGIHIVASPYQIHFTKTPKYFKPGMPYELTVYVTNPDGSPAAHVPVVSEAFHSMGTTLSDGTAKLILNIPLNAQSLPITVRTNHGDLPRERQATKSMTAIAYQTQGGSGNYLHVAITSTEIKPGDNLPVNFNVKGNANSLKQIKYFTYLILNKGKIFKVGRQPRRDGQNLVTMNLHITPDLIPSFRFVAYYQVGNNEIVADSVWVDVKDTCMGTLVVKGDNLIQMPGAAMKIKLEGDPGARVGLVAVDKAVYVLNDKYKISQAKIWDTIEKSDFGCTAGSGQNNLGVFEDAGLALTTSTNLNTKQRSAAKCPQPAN
Sequence of factor B (Q91132 733-984 partner limits assumed): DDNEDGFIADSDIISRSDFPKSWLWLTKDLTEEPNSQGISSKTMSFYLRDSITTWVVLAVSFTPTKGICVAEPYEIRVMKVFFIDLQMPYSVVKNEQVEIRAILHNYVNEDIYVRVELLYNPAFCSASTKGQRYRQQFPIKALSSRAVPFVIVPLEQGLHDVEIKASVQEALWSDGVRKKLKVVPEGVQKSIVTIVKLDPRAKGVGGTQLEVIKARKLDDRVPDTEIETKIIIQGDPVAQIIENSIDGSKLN
Sequence of factor B (Q91132 1264-1642 partner limits assumed): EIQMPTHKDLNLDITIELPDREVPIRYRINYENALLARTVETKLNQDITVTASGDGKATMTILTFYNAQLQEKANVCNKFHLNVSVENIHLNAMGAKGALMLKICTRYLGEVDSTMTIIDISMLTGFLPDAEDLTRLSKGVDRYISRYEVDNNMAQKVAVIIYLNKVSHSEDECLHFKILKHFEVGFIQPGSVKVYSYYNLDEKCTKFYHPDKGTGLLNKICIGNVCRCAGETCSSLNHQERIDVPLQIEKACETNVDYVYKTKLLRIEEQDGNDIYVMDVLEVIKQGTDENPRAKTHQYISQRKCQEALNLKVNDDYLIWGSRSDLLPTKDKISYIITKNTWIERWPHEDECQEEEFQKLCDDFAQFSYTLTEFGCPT

Turning to `CNC(=O)c1cc(C)c2[nH]ccc2c1C(O)(c1nc2cc(C#N)ccc2[nH]1)C(F)(F)F` (racemic) [Example 82, (±)-4-(1-(5-cyano-1H-benzo[d]imidazol-2-yl)-2,2,2-trifluoro-1-hydroxyethyl)-N,7-dimethyl-1H-indole-5-carboxamide], the 50% inhibitory concentration (IC50) worked out at 71900 nM.

For `Cc1cc(C(F)(F)F)c(C(C)(O)c2nc3cc(C#N)ccc3[nH]2)c2cc[nH]c12` (racemic) [Example 83-B, (±)-2-(1-hydroxy-1-(7-methyl-5-(trifluoromethyl)-1H-indol-4-yl)ethyl)-1H-benzo[d]imidazole-5-carbonitrile], the IC50 was found to be 1440 nM.

As to `CCc1cc(C)c2[nH]cc(Cl)c2c1C(O)c1nc2cc(C#N)ccc2[nH]1` (racemic) [Example 87, (±)-2-((3-Chloro-5-ethyl-7-methyl-1H-indol-4-yl)(hydroxy)methyl)-1H-benzo[d]imidazole-5-carbonitrile], the IC50 is 380 nM.

In the case of `Cc1cc(C)c2[nH]cc(C)c2c1C(O)c1nc2cc(C#N)ccc2[nH]1` (racemic) [Example 89-D, (±)-2-(Hydroxy(3,5,7-trimethyl-1H-indol-4-yl)methyl)-1H-benzo[d]imidazole-5-carbonitrile], the IC50 came out at 2320 nM.

As for `CCc1cc(C)c2[nH]cc(C(O)C(F)(F)F)c2c1Cc1nc2cc(C#N)ccc2[nH]1` (racemic) [Example 92-B, (±)-2-((5-Ethyl-7-methyl-3-(2,2,2-trifluoro-1-hydroxyethyl)-1H-indol-4-yl)methyl)-1H-benzo[d]imidazole-5-carbonitrile], the IC50 was found to be 9750 nM.

Consider `CNC(c1nc2cc(C#N)ccc2[nH]1)c1c(C)cc(C)c2[nH]ccc12` (racemic) [Example 98-B, (±)-2-((5,7-Dimethyl-1H-indol-4-yl)(methylamino)methyl)-1H-benzo[d]imidazole-5-carbonitrile], for which the IC50 was 560 nM.

Turning to `Cc1cc(C)c2[nH]ccc2c1C(NS(C)(=O)=O)c1nc2cc(C#N)ccc2[nH]1` (racemic) [Example 99-B, (±)-N-((5-cyano-1H-benzo[d]imidazol-2-yl)(5,7-dimethyl-1H-indol-4-yl)methyl)methanesulfonamide], the IC50 amounted to 750 nM.

With `CC(=O)NC(c1nc2cc(C#N)ccc2[nH]1)c1c(C)cc(C)c2[nH]ccc12` (racemic) [Example 100, (±)-N-((5-cyano-1H-benzo[d]imidazol-2-yl)(5,7-dimethyl-1H-indol-4-yl)methyl)acetamide], the IC50 is 1120 nM.

Take `CNC(C)(c1nc2cc(C#N)ccc2[nH]1)c1c(C)cc(C)c2[nH]ccc12` (racemic) [Example 103-E, (±)-2-(1-(5,7-Dimethyl-1H-indol-4-yl)-1-(methylamino)ethyl)-1H-benzo[d]imidazole-5-carbonitrile]: the IC50 turned out to be 50 nM.

Turning to `Cc1cc(C)c2[nH]ccc2c1C(C)(c1nc2cc(C#N)ccc2[nH]1)N(C)C` (racemic) [Example 104-B, (±)-2-(1-(5,7-dimethyl-1H-indol-4-yl)-1-(dimethylamino)ethyl)-1H-benzo[d]imidazole-5-carbonitrile], the IC50 is 260 nM.

Regarding `Cc1cc(C)c2[nH]ccc2c1C(CO)c1nc2cc(C#N)ccc2[nH]1` (racemic) [Example 108-E, (±)-2-(1-(5,7-Dimethyl-1H-indol-4-yl)-2-hydroxyethyl)-1H-benzo[d]imidazole-5-carbonitrile], the IC50 was found to be 80 nM.

Turning to `CCc1cc(C)c2[nH]ccc2c1C(OCC(=O)O)(c1nc2cc(C#N)ccc2[nH]1)C(F)(F)F` (racemic) [Example 109-B, (±)-2-(1-(5-cyano-1H-benzo[d]imidazol-2-yl)-1-(5-ethyl-7-methyl-1H-indol-4-yl)-2,2,2-trifluoroethoxy)acetic acid], the IC50 came to 30 nM.

For the compound `CCc1cc(C)c2[nH]cc(-c3ccccc3)c2c1C(O)c1nc2cc(C#N)ccc2[nH]1` (racemic) [Example 117-F, (±)-2-((5-Ethyl-7-methyl-3-phenyl-1H-indol-4-yl)(hydroxy)methyl)-1H-benzo[d]imidazole-5-carbonitrile], the IC50 turned out to be 70 nM.

For `Cc1cc(C)c2[nH]cc(-c3ccn[nH]3)c2c1C(O)c1nc2cc(C#N)ccc2[nH]1` (racemic) [Example 121-D, (±)-2-((5,7-Dimethyl-3-(1H-pyrazol-5-yl)-1H-indol-4-yl)(hydroxy)methyl)-1H-benzo[d]imidazole-5-carbonitrile], the half-inhibitory concentration (IC50) turned out to be 480 nM.

As to `COc1cc(C)c2[nH]ccc2c1C(OCC(=O)O)(c1nc2cc(C#N)ccc2o1)C(F)(F)F` (racemic) [Example 129-B, (±)-2-(1-(5-cyanobenzo[d]oxazol-2-yl)-2,2,2-trifluoro-1-(5-methoxy-7-methyl-1H-indol-4-yl)ethoxy)acetic acid], the IC50 was determined as 7860 nM.

With `COc1cc(C)c2[nH]ccc2c1C(N)(c1nc2cc(C#N)ccc2o1)C(F)(F)F` (racemic) [Example 130-B, (±)-2-(1-Amino-2,2,2-trifluoro-1-(5-methoxy-7-methyl-1H-indol-4-yl)ethyl)benzo[d]oxazole-5-carbonitrile], the IC50 was 20 nM.

Take `COc1cc(C)c2[nH]ccc2c1C(O)c1nc2ccc(C#N)cc2s1` (racemic) [Example 132-B, (±)-2-(hydroxy(5-methoxy-7-methyl-1H-indol-4-yl)methyl)benzo[d]thiazole-6-carbonitrile]: the IC50 stood at 70 nM.

As for `COc1cc(C)c2[nH]ccc2c1C(O)c1cc2ccc(C#N)cc2o1` (racemic) [Example 133-B, (±)-2-(hydroxy(5-methoxy-7-methyl-1H-indol-4-yl)methyl)benzofuran-6-carbonitrile], the IC50 was determined as 100 nM.

For the compound `COc1cc(C)c2[nH]ccc2c1C(O)c1cc2cc(C#N)ccc2o1` (racemic) [Example 134, (±)-2-(hydroxy(5-methoxy-7-methyl-1H-indol-4-yl)methyl)benzofuran-5-carbonitrile], the IC50 turned out to be 90 nM.

Turning to `COc1cc(C)c2[nH]ccc2c1C(O)c1cc2ccc(C#N)cc2[nH]1` (racemic) [Example 135-C, (±)-2-(hydroxy(5-methoxy-7-methyl-1H-indol-4-yl)methyl)-1H-indole-6-carbonitrile], the IC50 turned out to be 20 nM.

Regarding `COc1cc(C)c2[nH]ccc2c1C(O)c1cc2cc(C#N)ccc2[nH]1` (racemic) [Example 136, (±)-2-(hydroxy(5-methoxy-7-methyl-1H-indol-4-yl)methyl)-1H-indole-5-carbonitrile], the half-inhibitory concentration (IC50) was 20 nM.

As for `Cc1cc(S(C)(=O)=O)c(C(C)(O)c2nc3cc(C#N)ccc3[nH]2)c2cc[nH]c12` (single isomer, unassigned) [11-C b) (tr = 3 min), (+) or (−)-2-(1-hydroxy-1-(7-methyl-5-(methylsulfonyl)-1H-indol-4-yl)ethyl)-1H-benzo[d]imidazole-5-carbonitrile], the IC50 was 90 nM.

Consider `Cc1cc(S(C)(=O)=O)c(C(C)(O)c2nc3cc(C#N)ccc3[nH]2)c2cc[nH]c12` (single isomer, unassigned) [11-C b) (tr = 4.2 min), (−) or (+)-2-(1-hydroxy-1-(7-methyl-5-(methylsulfonyl)-1H-indol-4-yl)ethyl)-1H-benzo[d]imidazole-5-carbonitrile], for which the IC50 was 1020 nM.

For `Cc1cc(S(C)(=O)=O)c(C(N)c2nc3cc(C#N)ccc3[nH]2)c2cc[nH]c12` (single isomer, unassigned) [18-D (+), 2-(amino(7-methyl-5-(methylsulfonyl)-1H-indol-4-yl)methyl)-1H-benzo[d]imidazole-5-carbonitrile], the half-inhibitory concentration (IC50) was 1240 nM.

Regarding `Cc1cc(S(C)(=O)=O)c(C(N)c2nc3cc(C#N)ccc3[nH]2)c2cc[nH]c12` (single isomer, unassigned) [18-D (−), 2-(amino(7-methyl-5-(methylsulfonyl)-1H-indol-4-yl)methyl)-1H-benzo[d]imidazole-5-carbonitrile], the IC50 was 150 nM.

As for `CCOc1cc(C)c2[nH]ccc2c1C(O)(c1nc2cc(C#N)ccc2[nH]1)C(F)(F)F` (single isomer, unassigned) [33-C b) (tr = 3 min), 2-(1-(5-ethoxy-7-methyl-1H-indol-4-yl)-2,2,2-trifluoro-1-hydroxyethyl)-1H-benzo[d]imidazole-5-carbonitrile], the IC50 was 490 nM.

On to `CCOc1cc(C)c2[nH]ccc2c1C(O)(c1nc2cc(C#N)ccc2[nH]1)C(F)(F)F` (single isomer, unassigned) [33-C b) (tr = 5.1 min), 2-(1-(5-ethoxy-7-methyl-1H-indol-4-yl)-2,2,2-trifluoro-1-hydroxyethyl)-1H-benzo[d]imidazole-5-carbonitrile], for which the IC50 is 5380 nM.

As for `COc1cc(C)c2[nH]ccc2c1C(N)c1nc2cc(C#N)ccc2[nH]1` (single isomer, unassigned) [39-C b) (tr = 24.1 min), (−) or (+)-2-(amino(5-methoxy-7-methyl-1H-indol-4-yl)methyl)-1H-benzo[d]imidazole-5-carbonitrile], the IC50 was 8 nM.

Consider `COc1cc(C)c2[nH]ccc2c1C(N)c1nc2cc(C#N)ccc2[nH]1` (single isomer, unassigned) [39-C b) (tr = 30.6 min), (+) or (−)-2-(amino(5-methoxy-7-methyl-1H-indol-4-yl)methyl)-1H-benzo[d]imidazole-5-carbonitrile], for which the IC50 turned out to be 190 nM.

As for `Cc1cc(Br)c(C(C)(O)c2nc3cc(C#N)ccc3[nH]2)c2cc[nH]c12` (single isomer, unassigned) [79-F b) (tr = 2.2 min), (+) or (−)-2-(1-(5-bromo-7-methyl-1H-indol-4-yl)-1-hydroxyethyl)-1H-benzo[d]imidazole-5-carbonitrile], the 50% inhibitory concentration (IC50) was found to be 60 nM.

Consider `Cc1cc(Br)c(C(C)(O)c2nc3cc(C#N)ccc3[nH]2)c2cc[nH]c12` (single isomer, unassigned) [79-F b) (tr = 3.8 min), (−) or (+)-2-(1-(5-bromo-7-methyl-1H-indol-4-yl)-1-hydroxyethyl)-1H-benzo[d]imidazole-5-carbonitrile], for which the IC50 was found to be 270 nM.
